Laboratory results: BindingDB's records for patent US9427428 (Janssen Ireland, 2016)

Molecular target: T1, Genome polyprotein [810-3010] (Hepatitis C virus genotype 1b (isolate Con1), UniProt Q9WMX2)
T1 construct: 810-3010
Experiment: Stable Replicon Assay
Source text: The assay utilized the stably transfected cell line Huh-7 luc/neo (hereafter referred to as Huh-Luc). This cell line harbors an RNA encoding a bicistronic expression construct comprising the wild type NS3-NS5B regions of HCV type 1b translated from an Internal Ribosome Entry Site (IRES) from encephalomyocarditis virus (EMCV), preceded by a reporter portion (FfL-luciferase), and a selectable marker portion (neoR, neomycine phosphotransferase). The construct is flanked by 5' and 3' NTRs (non-translated regions) from HCV type 1b. Continued culture of the replicon cells in the presence of G418 (neoR) is dependent on the replication of the HCV RNA. The stably transfected replicon cells that replicate HCV RNA autonomously and to high levels, encoding inter alia luciferase, were used for screening the antiviral compounds. The replicon cells were plated in 384 well plates in the presence of the test and control compounds which were added in various concentrations. Following an incubation of three days, HCV replication was measured by assaying luciferase activity (using standard luciferase assay substrates and reagents and a Perkin Elmer ViewLux™ ultraHTS microplate imager). […] The inhibitory activity of the compound was monitored on the Huh-Luc cells, enabling a dose-response curve for each test compound.

T1 sequence (Q9WMX2 810-3010): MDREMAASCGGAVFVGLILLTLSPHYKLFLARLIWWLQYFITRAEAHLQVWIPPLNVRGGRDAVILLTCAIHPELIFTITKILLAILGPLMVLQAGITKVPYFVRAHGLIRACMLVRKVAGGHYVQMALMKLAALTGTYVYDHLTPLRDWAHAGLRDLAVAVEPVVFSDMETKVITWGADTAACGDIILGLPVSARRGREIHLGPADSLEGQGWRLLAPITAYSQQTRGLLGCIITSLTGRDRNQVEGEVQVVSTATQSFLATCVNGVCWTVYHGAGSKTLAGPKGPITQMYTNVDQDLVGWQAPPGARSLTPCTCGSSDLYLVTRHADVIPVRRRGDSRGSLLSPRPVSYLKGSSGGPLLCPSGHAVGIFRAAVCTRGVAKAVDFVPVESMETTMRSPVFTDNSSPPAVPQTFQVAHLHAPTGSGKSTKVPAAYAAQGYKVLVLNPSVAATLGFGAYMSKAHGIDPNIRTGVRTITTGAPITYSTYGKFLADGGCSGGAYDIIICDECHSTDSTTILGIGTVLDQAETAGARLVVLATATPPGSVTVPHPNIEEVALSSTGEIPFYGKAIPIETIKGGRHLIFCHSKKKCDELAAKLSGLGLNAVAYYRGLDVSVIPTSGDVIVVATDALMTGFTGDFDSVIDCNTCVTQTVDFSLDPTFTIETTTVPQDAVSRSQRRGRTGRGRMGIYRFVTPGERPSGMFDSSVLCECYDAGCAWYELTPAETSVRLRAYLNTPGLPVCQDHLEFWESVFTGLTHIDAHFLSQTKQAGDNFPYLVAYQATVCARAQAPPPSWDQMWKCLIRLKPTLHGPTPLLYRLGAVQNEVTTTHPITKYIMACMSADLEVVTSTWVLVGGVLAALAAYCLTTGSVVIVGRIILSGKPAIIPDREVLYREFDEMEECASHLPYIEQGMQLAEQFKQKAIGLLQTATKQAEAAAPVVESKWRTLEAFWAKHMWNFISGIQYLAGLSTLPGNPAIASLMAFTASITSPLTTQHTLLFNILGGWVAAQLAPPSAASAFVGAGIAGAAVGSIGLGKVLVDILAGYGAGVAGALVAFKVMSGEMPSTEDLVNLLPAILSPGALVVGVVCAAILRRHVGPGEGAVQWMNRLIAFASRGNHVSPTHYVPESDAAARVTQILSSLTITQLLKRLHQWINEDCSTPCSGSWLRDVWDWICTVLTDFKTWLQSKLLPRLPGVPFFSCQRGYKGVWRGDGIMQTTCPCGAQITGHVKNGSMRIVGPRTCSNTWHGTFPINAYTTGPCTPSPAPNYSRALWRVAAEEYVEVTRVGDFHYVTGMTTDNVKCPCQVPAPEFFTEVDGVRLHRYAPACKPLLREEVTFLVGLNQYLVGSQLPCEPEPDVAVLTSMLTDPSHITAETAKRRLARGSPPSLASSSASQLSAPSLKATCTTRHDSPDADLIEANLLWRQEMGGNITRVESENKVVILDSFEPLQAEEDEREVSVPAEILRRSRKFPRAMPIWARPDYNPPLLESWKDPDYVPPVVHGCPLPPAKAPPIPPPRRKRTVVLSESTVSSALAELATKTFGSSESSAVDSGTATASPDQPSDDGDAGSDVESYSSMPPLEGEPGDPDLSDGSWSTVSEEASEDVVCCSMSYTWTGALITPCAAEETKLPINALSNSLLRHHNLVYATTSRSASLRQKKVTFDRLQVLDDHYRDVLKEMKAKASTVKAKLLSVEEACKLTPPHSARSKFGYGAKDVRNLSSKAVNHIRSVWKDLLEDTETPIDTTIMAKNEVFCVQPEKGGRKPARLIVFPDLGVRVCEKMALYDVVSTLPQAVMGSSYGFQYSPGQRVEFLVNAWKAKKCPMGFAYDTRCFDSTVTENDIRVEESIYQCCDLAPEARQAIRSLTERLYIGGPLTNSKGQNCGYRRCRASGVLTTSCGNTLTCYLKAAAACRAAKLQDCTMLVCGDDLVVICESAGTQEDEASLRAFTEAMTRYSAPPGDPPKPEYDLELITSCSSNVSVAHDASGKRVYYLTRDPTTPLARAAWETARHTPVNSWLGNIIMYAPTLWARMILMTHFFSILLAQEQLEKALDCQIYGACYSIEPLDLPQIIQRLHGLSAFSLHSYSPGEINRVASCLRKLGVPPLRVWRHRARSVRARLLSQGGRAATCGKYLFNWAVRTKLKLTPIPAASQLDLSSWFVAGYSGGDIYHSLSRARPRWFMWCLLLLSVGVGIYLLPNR

CC[C@H](C)[C@H](NC(=O)OC)C(=O)N1CCC[C@H]1c1ncc(-c2ccc3cc(-c4ccc5[nH]c([C@@H]6CCCN6C(=O)[C@@H](NC(=O)OC)[C@@H](C)OC)nc5c4)ccc3c2)[nH]1 [US9427428, 21]
EC50: 2.2 nM
